Test results taken from publication PMC3983190, “Chemical Derivatives of a Small Molecule Deubiquitinase Inhibitor Have Antiviral Activity against Several RNA Viruses” (PLoS ONE, 2014).
≈ marks a conversion by molar mass, not a printed value. Where two headings read alike, the source gives them in different places.

Legend:
[1] = WST-1 cellular toxicity assay, HG23 replicon-bearing cells; type: cell-based; conditions: human, HG23 Norwalk virus replicon-bearing cells, WST-1 viability
RNA viruses = assay: Antiviral activity across the panel of RNA viruses tested; type: cell-based; conditions: 5 µM
From the text: (§1) Cells were freeze-thawed twice.

[2] = mouse
[3] = WST-1 cellular toxicity assay, bone marrow-derived macrophages; conditions: Swiss Webster, mouse
[4] = Aqueous solubility as per Lipinski et al.; conditions: for solubility: kinetic from dmso stock
Tulane virus = Tulane virus infection of LLC-MK2 cells, plaque assay; type: cell-based; conditions: 5 µM, 30 minutes pre-treatment, MOI 5, 24 hours
From the text: as §1

Sindbis virus = Sindbis virus infection of Vero cells, plaque assay; type: cell-based; conditions: 5 µM, 30 minutes pre-treatment, MOI 5, 12 hours
From the text: as §1

La Crosse virus (LCV) = assay: La Crosse virus infection of Be2-c cells, plaque assay; type: cell-based; conditions: 5 µM, 30 minutes pre-treatment, MOI 5, 12 hours
From the text: as §1

[5] = system: Encephalomyocarditis virus (EMCV); assay: Encephalomyocarditis virus infection of Vero cells, plaque assay; type: cell-based; conditions: 5 µM, 30 minutes pre-treatment, MOI 5, 12 hours
From the text: as §1

Norwalk virus = assay: HuNoV replicon assay in HG23 cells, Norwalk virus genomes by qRT-PCR; conditions: for reduction of detectable Norwalk virus genomes compared to DMSO: 5 µM, 24 hours, HG23 cells; for EC50: Norwalk virus, HG23, 24 h, read-out: EC50 HG23
MNV-1 [6] = conditions: 5 µM; for decrease in MNV-1 titers compared to DMSO: 30 minute pre-treatment, RAW 264.7, 8 hours; for viral titer decrease compared to DMSO: administered 1 hour post infection, RAW 264.7
physchem = conditions: kinetic from dmso stock
MNV-1 [7] = conditions: previously determined by the authors; cited from earlier work
in vitro [8] = conditions: Swiss Webster, mouse
[9] = system: Vesicular Stomatitis Virus (VSV); type: cell-based
in vitro [10] = conditions: mouse

SMILES	CC50 at 24 h [1]	antiviral activity against any of the viruses tested (RNA viruses)	CC50 [2]	CC50 [3]	solubility [4]	effect on Tulane virus infectious titers (Tulane virus)	effect on Sindbis virus infectious titers (Sindbis virus)	effect on La Crosse virus infectious titers (La Crosse virus (LCV))	effect on EMCV infectious titers [5]	expected aqueous solubility (not determined, limited availability) ([4]; relative to WP1130)	reduction of detectable Norwalk virus genomes compared to DMSO (Norwalk virus)	EC50 (Norwalk virus)	decrease in MNV-1 titers compared to DMSO (MNV-1 [6])	viral titer decrease compared to DMSO (MNV-1 [6])	solubility (physchem)	EC50 (MNV-1 [7])	CC50 (in vitro [8])	inhibition of VSV infection [9]	CC50 (in vitro [10])
CCC[C@H](NC(=O)/C=C/c1cccc(Br)n1)c1ccccc1 [Compound 1]	7.2 µM	no antiviral activity	24.7 µM	10.4 µM	–	–	–	–	–	–	–	–	–	–	–	–	–	–	–
CCC[C@H](NC(=O)C(C#N)Cc1cccc(Br)n1)c1ccccc1 (stereo partly drawn) [Compound 2]	8.71 µM	no antiviral activity	24.9 µM	8.53 µM	–	–	–	–	–	–	–	–	–	–	–	–	–	–	–
CCCC(NC(=O)/C(C#N)=C/c1cccc(Br)n1)c1ccc(OCCN(C)C)cc1 (stereo not drawn) [Compound 3]	7.82 µM	no effect	9.43 µM	6.12 µM	19 µM (≈ 8.96 µg/mL)	–	–	–	–	–	–	–	–	–	–	–	–	–	–
CCC(NC(=O)/C(C#N)=C/c1cccc(Br)n1)c1ccc(O)cc1 (stereo not drawn) [Compound 4]	9.26 µM	–	11 µM	15.2 µM	–	effective	only effective against Tulane virus	only effective against Tulane virus	only effective against Tulane virus	more soluble than WP1130 but less soluble than compound 7	approximately 30%	6.52 µM	1.95 log	1.73 log	–	–	–	–	–
CCCC(NC(=O)/C(C#N)=C/c1cccnc1F)c1ccc(OCCN2CCOCC2)cc1 (stereo not drawn) [Compound 5]	7.61 µM	–	15.4 µM	11.3 µM	14 µM (≈ 6.34 µg/mL)	effective	only effective against Tulane virus	only effective against Tulane virus	only effective against Tulane virus	–	about 64%	4.28 µM	2.52 log	2.67 log	–	–	–	–	–
CCCC(NC(=O)/C(C#N)=C/c1ccccn1)c1ccc(OCCN2CCOCC2)cc1 (stereo not drawn) [Compound 6]	10.4 µM	–	7.46 µM	11.1 µM	160 µM (≈ 69.5 µg/mL)	significantly reduced infectious titers	significantly reduced infectious titers	significantly reduced infectious titers	significantly reduced infectious titers	–	about 64%	4.17 µM	2.55 log	2.50 log	–	–	–	–	–
CCCC(NC(=O)/C(C#N)=C/c1cccc(F)n1)c1ccc(OCCN2CCOCC2)cc1 (stereo not drawn) [Compound 7]	6.12 µM	–	13.7 µM	7.11 µM	14 µM (≈ 6.34 µg/mL)	significantly decreased infection	significantly decreased infection	significantly decreased infection	not of EMCV, although a trend towards antiviral activity was present	–	~80%	3.37 µM	2.60 log	1.51 log	–	–	–	–	–
CCC[C@H](NC(=O)/C(C#N)=C/c1cccc(Br)n1)c1ccccc1 [WP1130, reference compound]	6.2 µM	–	–	–	–	significantly reduced infectious titers	significantly reduced infectious titers	significantly reduced infectious titers	significantly reduced infectious titers	–	–	–	2.0 log	–	~3.2 µM (≈ 1.23 µg/mL)	5.06 µM	6.46 µM	not inhibited	9.95 µM
